Data as given in patent publication US10344032B2, “Agents for treating neurogenic inflammation and neuropathic hyperalgesia related disorders” (PÉCSI TUDOMÁNYEGYETEM, priority 2014, dated 2019).
Where a name gives a salt, the structure may show the parent alone.

How the values were obtained:
[1] = system: sensory nerve terminals of isolated rat tracheae; test: Electrical field stimulation-induced release of CGRP from sensory nerve terminals of isolated rat tracheae; details: 500 nM; absolute release = stimulated + post-stimulated fractions minus basal release
Protocol: Rats were exsanguinated in deep anaesthesia (sodium thiopental, 50 mg/kg i.p.), then the whole trachea was removed and cleaned of fat and adhering connective tissues. Tracheae from two rats were placed into the same 1.8 ml organ bath to obtain sufficient amount of released peptide and perfused (1 ml/min) with pH—(7.2) controlled oxygenized Krebs solution for 60 minutes (equilibration period) at 37° C. temperature. After discontinuation of the flow, the solution was changed three times for 8 minutes to produce pre-stimulated, stimulated, post-stimulated fractions. Electrical field stimulation (40 V, 0.1 ms, 10 Hz for 120 s; 1200 pulses) was performed to elicit neurotransmitter release at the beginning of the second 8-minute period. […]
CGRP concentration was determined from 400-400 μl samples of the organ bath solutions by means of a selective and sensitive radioimmunoassay method developed in our laboratories and described in details in several previous papers (Nemeth et al. 1998, 1999, 2006; Helyes et al., 1997, 2001, 2006; Borzsei et al., 2008). The released amount of the peptides was calculated as fmol peptide per mg wet tissue (trachea). The absolute EFS-induced CGRP outflow in each experiment was calculated by taking off the basal release measured in the first (pre-stimulated) fraction from the second and third 8-min fractions and then adding these values. […]

sst4 receptor = biological target: T1, sst4 receptor (Homo sapiens, UniProt P31391); test: Somatostatin sst4 receptor-coupled G-protein activation assay ([35S]GTPγS binding); format: biochemical; details: 100 nM concentration; membrane fractions of CHO cells stably expressing the sst4 receptor; percentage over specific binding in absence of agonists
T1 construct: expressed in transfected cells
Excerpt: [^35S]GTPγS binding assay is a functional test determining agonist-induced and receptor-mediated G-protein activation which is based on the increase in guanine nucleotide exchange at G-proteins upon agonist stimulation. The interaction of a G protein-coupled receptor (GPCR) with the G protein is the first step in the transduction of the receptor binding signal to the activation of the second-messenger systems. We measured the level of [^35S]-GTPγS bound to the α subunit of G proteins and determined the efficacy of the compounds. Compounds which elicited 200% [^35S]GTPγS binding in nanomolar concentration were considered effective agonist. The examined compounds were added into the medium in 1 nM, 10 nM, 100 nM 1 μM and 10 μM concentrations.
Membrane fractions were prepared from CHO cells stably expressing the sst4 receptor in Tris-EGTA buffer (50 mM Tris-HCl, 1 mM EGTA, 3 mM MgCl2, 100 mM NaCl, pH 7.4). These membrane fractions (˜10 μg of protein/sample) were incubated at 30° C. for 60 min in the same Tris-EGTA buffer containing [^35S]GTPγS (0.05 nM) and increasing concentrations (10^−9 to 10^−5 M) of test compounds in the presence of 30 μM GDP in a final volume of 500 μl. Non-specific binding was determined in the presence of 10 μM unlabelled GTPγS. Total binding was measured in the absence of test compounds. To calculate the specific binding, non-specific binding was subtracted from total binding. The reaction was terminated by filtrating the samples through Whatman GF/B glass fiber filters. Using 48-well Slot Blot Manifold from Cleaver Scientific filters were washed three times with ice-cold 50 mM Tris-HCl buffer (pH 7.4). After drying for 60 min at 37° C., radioactivity was measured in scintillation liquid in a Packard Tri-Carb 2800 TR scintillation counter. Test compound-induced G-protein stimulation was given as percentage over the specific [^35S]GTPγS binding observed in the absence of agonists.

rat = test: Plantar incision-induced mechanical allodynia (dynamic plantar aesthesiometer), postoperative pain model; format: in vivo; details: 100 μg/kg p.o., measured 60 min later; one day after plantar incision; dynamic plantar aesthesiometry
Protocol: Rats were anaesthesized with sodium-pentobarbital (Euthasol, 40 mg/kg i.p.) and a 1 cm longitudinal incision was made through the skin, fascia and muscle of the plantar aspect of the hindpaw. Significant decrease of both the thermonociceptive and mechanonociceptive thresholds (heat and mechanical allodynia) of the paw develops 1 day after this procedure.
One hundred and forty five (145) female Wistar rats (150-250 g) kept in the Animal House of the University of Pecs in a temperature-controlled room provided with a 12-hour light-dark cycle, standard rat chow and water ad libitum were used in this experimental series. They were brought to the air-conditioned laboratory the day before the experiment started. Throughout the total study the same assistant handled all the animals. […] Touch sensitivity was measured with a dynamic plantar aesthesiometer (DPA) and the thermonociceptive threshold was determined with an increasing temperature water-bath (ITWB) on the same rats (see below). […] Test compounds were administered p.o. and post-dose touch sensitivity and thermonociceptive thresholds were measured 60 min later. […]
a) Touch sensitivity of the plantar surface of the paw was measured with the Ugo Basile Dynamic Plantar Aesthesiometer (DPA; 37400, Comerio, Italy), which is an electronic von Frey device. […]

T1 sequence (P31391 whole entry): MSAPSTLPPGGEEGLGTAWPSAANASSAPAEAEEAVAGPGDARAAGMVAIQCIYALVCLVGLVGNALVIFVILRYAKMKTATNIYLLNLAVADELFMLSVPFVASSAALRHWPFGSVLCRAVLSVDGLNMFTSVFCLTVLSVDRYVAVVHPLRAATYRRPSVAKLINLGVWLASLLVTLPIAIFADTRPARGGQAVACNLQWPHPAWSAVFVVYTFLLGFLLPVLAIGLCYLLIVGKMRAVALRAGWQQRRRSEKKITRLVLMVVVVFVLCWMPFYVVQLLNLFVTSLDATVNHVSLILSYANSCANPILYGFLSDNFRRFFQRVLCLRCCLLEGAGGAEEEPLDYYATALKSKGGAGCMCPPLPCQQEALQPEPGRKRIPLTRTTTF

melting point [°C] | SMILES | other results
100 to 101.9 | COc1ccc(CCNc2ncnc3c2c(C)c(C)n3Cc2ccccc2)cc1 [Example 2, (7-Benzyl-5,6-dimethyl-7H-pyrrolo[2,3-d]pyrimidin-4-yl)-[2-(4-methoxy-phenyl)-ethyl]-amine] | inhibition on the absolute CGRP release [1]: 72.5%; [35S]GTPγS binding (G-protein activation) (sst4 receptor): 245.67%
208.7 to 209.2 | Cc1c(C)n(Cc2ccccc2)c2ncnc(NCCc3cccc(O)c3)c12 [Example 58, 3-[2-(7-Benzyl-5,6-dimethyl-7H-pyrrolo[2,3-d]pyrimidin-4-ylamino)-ethyl]-phenol] | decrease of mechanical allodynia (rat): 64.7%; [35S]GTPγS binding (G-protein activation) (sst4 receptor): 194.5%
185 to 187.2 | COc1cccc(CCNc2ncnc3c2c(C)c(C)n3Cc2ccccc2)c1 [Example 40, (7-Benzyl-5,6-dimethyl-7H-pyrrolo[2,3-d]pyrimidin-4-yl)-[2-(3-methoxy-phenyl)-ethyl]-amine] | [35S]GTPγS binding (G-protein activation) (sst4 receptor): 202.67%
– | COc1ccc(CCNc2ncnc3c2c(C)c(C)n3CCCN(C)C)cc1 [Example 41, [7-(3-Dimethylamino-propyl)-5,6-dimethyl-7H-pyrrolo[2,3-d]pyrimidin-4-yl]-[2-(4-methoxy-phenyl)-ethyl]-amine] | [35S]GTPγS binding (G-protein activation) (sst4 receptor): 207.67%
236 to 238 | Cc1c(C)n(CCCN(C)C)c2ncnc(NCCc3ccccc3)c12 (as salt: salt) [Example 14, [7-(3-Dimethylamino-propyl)-5,6-dimethyl-7H-pyrrolo[2,3-d]pyrimidin-4-yl]-phenethyl-amine] | –
186.1 to 187.2 | CC(=O)Nc1ccc(CCNc2ncnc3c2c(C)c(C)n3Cc2cccc(Cl)c2)cc1 [Example 45, N-(4-{2-[7-(3-Chloro-benzyl)-5,6-dimethyl-7H-pyrrolo[2,3-d]pyrimidin-4-ylamino]-ethyl}-phenyl)-acetamide] | –
140 to 141 | COc1ccc(CCNc2ncnc3c2ccn3Cc2ccccc2)cc1 [Example 13, (7-Benzyl-7H-pyrrolo[2,3-d]pyrimidin-4-yl)-[2-(4-methoxy-phenyl)-ethyl]-amine] | –
95 to 96.6 | Cc1c(C)n(Cc2ccccc2)c2ncnc(NCCc3ccc(N(C)C)cc3)c12 [Example 62, (7-Benzyl-5,6-dimethyl-7H-pyrrolo[2,3-d]pyrimidin-4-yl)-[2-(4-dimethylamino-phenyl)-ethyl]-amine] | –
167.7 to 170 | Cc1c(C)n(Cc2cccc(Cl)c2)c2ncnc(NCCc3ccc(O)cc3)c12 [Example 61, 4-{2-[7-(3-Chloro-benzyl)-5,6-dimethyl-7H-pyrrolo[2,3-d]pyrimidin-4-ylamino]-ethyl}-phenol] | –
221 to 223 | Cc1c(C)n(Cc2ccco2)c2ncnc(NCCc3ccccc3)c12 [Example 32, (7-Furan-2-ylmethyl-5,6-dimethyl-7H-pyrrolo[2,3-d]pyrimidin-4-yl)-phenethyl-amine] | –
100.4 to 100.7 | COc1ccc(CCNc2ncnc3c2ccn3Cc2cncc(Br)c2)cc1 [Example 38, [7-(5-Bromo-pyridin-3-ylmethyl)-7H-pyrrolo[2,3-d]pyrimidin-4-yl]-[2-(4-methoxy-phenyl)-ethyl]-amine] | –
175.7 to 176.4 | Cc1c(C)n(Cc2ccccc2)c2ncnc(NCCc3ccc(NS(C)(=O)=O)cc3)c12 [Example 5, N-{4-[2-(7-Benzyl-5,6-dimethyl-7H-pyrrolo[2,3-d]pyrimidin-4-ylamino)-ethyl]-phenyl}-methanesulfonamide] | –
125 to 129 | Cc1c(C)n(Cc2cccc(Cl)c2)c2ncnc(NCCc3ccc(NS(C)(=O)=O)cc3)c12 [Example 55, N-(4-{2-[7-(3-Chloro-benzyl)-5,6-dimethyl-7H-pyrrolo[2,3-d]pyrimidin-4-ylamino]-ethyl}-phenyl)-methanesulfonamide] | –
180 to 182.3 | Clc1ccccc1CCNc1ncnc2c1ccn2Cc1ccccc1 [Example 25, (7-Benzyl-7H-pyrrolo[2,3-d]pyrimidin-4-yl)-[2-(2-chloro-phenyl)-ethyl]-amine] | –
209 to 212.9 | Cc1c(C)n(CCCN(C)C)c2ncnc(NCC(O)c3ccccc3)c12 (stereo not shown) (as salt: salt) [Example 18, 2-[7-(3-Dimethylamino-propyl)-5,6-dimethyl-7H-pyrrolo[2,3-d]pyrimidin-4-ylamino]-1-phenyl-ethanol] | –
> 270 | Cc1c(C)n(Cc2ccccc2)c2ncnc(NCCc3ccc(NC(=O)c4ccc(Cl)cc4)cc3)c12 [Example 49, N-{4-[2-(7-Benzyl-5,6-dimethyl-7H-pyrrolo[2,3-d]pyrimidin-4-ylamino)-ethyl]-phenyl}-4-chloro-benzamide] | –
114 to 115 | Clc1ccccc1CCNc1ncnc2c1ccn2Cc1cncc(Br)c1 [Example 36, [7-(5-Bromo-pyridin-3-ylmethyl)-7H-pyrrolo[2,3-d]pyrimidin-4-yl]-[2-(2-chloro-phenyl)-ethyl]-amine] | –
